System: 1K1C hypertensive dogs
Assay: Haemodynamic, renal and hormonal effects in conscious 1-kidney-1-clip hypertensive dogs
Format: in vivo
Protocol: The studies described in this experiment were conducted in dogs that had been rendered hypertensive by prior unilateral nephrectomy and constriction of the remaining renal artery. This model is characterized by normal basal levels of plasma renin activity and is relatively resistant to the anti-hypertensive activity of angiotensin converting enzyme inhibitors and AT1 receptor antagonists.
The following experiments were conducted in fasted 1K1C hypertensive dogs lightly restrained in standard canine slings. An indwelling arterial catheter was accessed via a subcutaneous port for measurement of blood pressure via a Gould-Statham pressure transducer. Mean arterial pressure (MAP) was continuously recorded on a Gould chart writer and stored electronically using a Po-Ne-Mah data acquisition system. During each study, urine was collected at 20 minute intervals via a Foley bladder catheter for determination of urine volume. The concentrations of urinary sodium and potassium were measured using ion-selective electrodes and their rates of urinary excretion (µEq/min) were calculated. Glomerular filtration rate (GFR) and effective renal plasma flow (ERPF) were determined by the renal clearances of exogenous creatinine and para-aminohippuric acid (PAH), respectively. The concentrations of creatinine and PAH in sequential samples of urine and plasma were determined by spectrophotometric assays and the clearances were calculated by the standard formula.
Arterial blood samples were drawn at the end of the control period and at 60 minute intervals thereafter for determination of the plasma concentrations of atrial natriuretic peptide (ANP), cyclic GMP and plasma renin activity (PRA) by separate radioimmunoassays. The plasma and urine samples were preserved and the assays were conducted according to standard radioimmunoassay procedures. Urinary excretion rates of cyclic GMP and ANP were calculated and expressed as pmol/min and fmol/min, respectively.
In each study, baseline measurements were obtained during two 20 minute control periods. One of the treatments was then administered and sampling continued at 20 minute intervals for three hours.
To minimize inter-animal variability, each data point was expressed as the change from the average control value for that parameter. Significant differences among treatments were identified by analysis of variance for repeated measures. […] Results are given as mean ± SEM.

[1] = 20 min after treatment, 30 µmol/kg iv of each agent
[2] = 40 min after treatment, 30 µmol/kg iv of each agent
[3] = 60 min after treatment, 30 µmol/kg iv of each agent
[4] = 80 min after treatment, 30 µmol/kg iv of each agent
[5] = 100 min after treatment, 30 µmol/kg iv of each agent
[6] = 120 min after treatment, 30 µmol/kg iv of each agent
[7] = 140 min after treatment, 30 µmol/kg iv of each agent
[8] = 160 min after treatment, 30 µmol/kg iv of each agent
[9] = 180 min after treatment, 30 µmol/kg iv of each agent

## O=C(O)CCNC(=O)C(CS)Cc1ccccc1 (racemic) [SQ 28603, (±)-N-[2-(mercaptomethyl)-1-oxo-3-phenylpropyl]-β-alanine]
30 µmol/kg iv of each agent, cumulative over 3 hours
  increase in the amount of sodium excreted during the 3 hours after injection: 5.2±2.3 mEq/3 hr
30 µmol/kg iv of each agent, not statistically significant compared to vehicle
  Cyclic GMP excretion, change over 3 hr: +32±28 nmol/3 hr
[1]
  ANP Excretion, Change from control: 20.8 ± 4.9 fmol/min
  Cyclic GMP Excretion, Change from control: 106 ± 295 pmol/min
  Effective Renal Plasma Flow, Change from control: 6 ± 38 mL/min
  Glomerular Filtration Rate, Change from control: 6 ± 11 mL/min
  Mean Arterial Pressure, Change from control: 6±1 mm Hg
  Sodium Excretion, Change from control: 13±4 µEq/min
  Urine Volume, Change from control: 0.29 ± 0.31 mL/min
[2]
  ANP Excretion, Change from control: 24.0 ± 4.6 fmol/min
  Cyclic GMP Excretion, Change from control: 101 ± 280 pmol/min
  Effective Renal Plasma Flow, Change from control: -5 ± 15 mL/min
  Glomerular Filtration Rate, Change from control: 3 ± 2 mL/min
  Mean Arterial Pressure, Change from control: 9±3 mm Hg
  Sodium Excretion, Change from control: 21±16 µEq/min
  Urine Volume, Change from control: 0.15 ± 0.13 mL/min
[3]
  ANP Excretion, Change from control: 45.2 ± 24.2 fmol/min
  Cyclic GMP Excretion, Change from control: 338 ± 206 pmol/min
  Effective Renal Plasma Flow, Change from control: 3 ± 20 mL/min
  Glomerular Filtration Rate, Change from control: 6 ± 5 mL/min
  Mean Arterial Pressure, Change from control: 8±3 mm Hg
  Plasma Renin Activity, Change from control: -0.07±0.05 pmol AI/ml/hr
  Sodium Excretion, Change from control: 14±9 µEq/min
  Urine Volume, Change from control: 0.18 ± 0.14 mL/min
[4]
  ANP Excretion, Change from control: 55.5 ± 19.7 fmol/min
  Cyclic GMP Excretion, Change from control: 226 ± 154 pmol/min
  Effective Renal Plasma Flow, Change from control: -20 ± 6 mL/min
  Glomerular Filtration Rate, Change from control: 5 ± 2 mL/min
  Mean Arterial Pressure, Change from control: 8±2 mm Hg
  Sodium Excretion, Change from control: 25±13 µEq/min
  Urine Volume, Change from control: 0.21 ± 0.15 mL/min
[5]
  ANP Excretion, Change from control: 41.0 ± 12.3 fmol/min
  Cyclic GMP Excretion, Change from control: 128 ± 178 pmol/min
  Effective Renal Plasma Flow, Change from control: -25 ± 10 mL/min
  Glomerular Filtration Rate, Change from control: 5 ± 4 mL/min
  Mean Arterial Pressure, Change from control: 5±3 mm Hg
  Sodium Excretion, Change from control: 24±12 µEq/min
  Urine Volume, Change from control: 0.07 ± 0.08 mL/min
[6]
  ANP Excretion, Change from control: 48.3 ± 21.5 fmol/min
  Cyclic GMP Excretion, Change from control: 117 ± 220 pmol/min
  Effective Renal Plasma Flow, Change from control: -15 ± 6 mL/min
  Glomerular Filtration Rate, Change from control: 5 ± 1 mL/min
  Mean Arterial Pressure, Change from control: 3±4 mm Hg
  Plasma Renin Activity, Change from control: -0.02±0.05 pmol AI/ml/hr
  Sodium Excretion, Change from control: 35±19 µEq/min
  Urine Volume, Change from control: 0.12 ± 0.13 mL/min
[7]
  ANP Excretion, Change from control: 41.8 ± 14.2 fmol/min
  Cyclic GMP Excretion, Change from control: 121 ± 182 pmol/min
  Effective Renal Plasma Flow, Change from control: -11 ± 12 mL/min
  Glomerular Filtration Rate, Change from control: 7 ± 4 mL/min
  Mean Arterial Pressure, Change from control: 4±2 mm Hg
  Sodium Excretion, Change from control: 39±18 µEq/min
  Urine Volume, Change from control: 0.20 ± 0.10 mL/min
[8]
  ANP Excretion, Change from control: 36.9 ± 12.4 fmol/min
  Cyclic GMP Excretion, Change from control: 100 ± 246 pmol/min
  Effective Renal Plasma Flow, Change from control: -1 ± 12 mL/min
  Glomerular Filtration Rate, Change from control: 9 ± 5 mL/min
  Mean Arterial Pressure, Change from control: 5±2 mm Hg
  Sodium Excretion, Change from control: 44±19 µEq/min
  Urine Volume, Change from control: 0.24 ± 0.11 mL/min
[9]
  ANP Excretion, Change from control: 29.0 ± 7.9 fmol/min
  Cyclic GMP Excretion, Change from control: 343 ± 170 pmol/min
  Effective Renal Plasma Flow, Change from control: -4 ± 9 mL/min
  Glomerular Filtration Rate, Change from control: 10 ± 4 mL/min
  Mean Arterial Pressure, Change from control: 7±3 mm Hg
  Plasma Renin Activity, Change from control: -0.01±0.7 pmol AI/ml/hr
  Sodium Excretion, Change from control: 44±18 µEq/min
  Urine Volume, Change from control: 0.17 ± 0.06 mL/min
Control, before treatment
  ANP Excretion: 1.9 ± 0.2 fmol/min
  Cyclic GMP Excretion: 1017 ± 180 pmol/min
  Effective Renal Plasma Flow: 123 ± 15 mL/min
  Glomerular Filtration Rate: 39 ± 5 mL/min
  Mean Arterial Pressure: 132±8 mm Hg
  Plasma Renin Activity: 0.16±0.02 pmol AI/ml/hr
  Sodium Excretion: 40±20 µEq/min
  Urine Volume: 0.38 ± 0.13 mL/min
Summary of TABLE 2, 30 µmol/kg iv of each agent, 3 hours
  sodium excretion, effect in words: increased
Summary of TABLE 3, 30 µmol/kg iv of each agent, 3 hours
  urine volume, effect in words: increased
Summary of TABLE 6, 30 µmol/kg iv of each agent
  Urinary excretion of ANP, effect in words: increased significantly
Summary of Table 1, 30 µmol/kg iv of each agent, 3 hours
  mean arterial pressure (MAP), effect in words: initially increased

— EP0726072A2, “Composition for the treatment of hypertension and congestive heart failure, containing an angiotensin II antagonist and an endopeptidase inhibitor” (BRISTOL-MYERS SQUIBB COMPANY, priority 1995, dated 1996)
